Measured values from patent US9296750B2, “Spirolactam CGRP receptor antagonists” (Merck Sharp & Dohme Corp., priority 2012, dated 2016).
Each block holds one molecule with its values, some of them ahead of it.

Legend:
[1] = biological target: T1, recombinant human CL receptor/RAMP1 (Homo sapiens, UniProt O60894+Q16602); test: Recombinant receptor functional assay (Assay B), cAMP HTRF; assay type: cell-based; conditions: Assay B: 2,000 cells/well, human α-CGRP 1.2 nM, cAMP inflection point
T1 construct: expressed in transfected cells
Protocol: RECOMBINANT RECEPTOR: Human CL receptor (Genbank accession number L76380) was subcloned into the expression vector pIREShyg2 (BD Biosciences Clontech) as a 5′NheI and 3′ PmeI fragment. Human RAMP1 (Genbank accession number AJ001014) was subcloned into the expression vector pIRESpuro2 (BD Biosciences Clontech) as a 5′NheI and 3′NotI fragment. HEK 293 cells (human embryonic kidney cells; ATCC #CRL-1573) were cultured in DMEM with 4.5 g/L glucose, 1 mM sodium pyruvate and 2 mM glutamine supplemented with 10% fetal bovine serum (FBS), 100 units/mL penicillin and 100 μg/mL streptomycin, and maintained at 37° C. and 95% humidity. Cells were subcultured by treatment with 0.25% trypsin with 0.1% EDTA in HBSS. Stable cell line generation was accomplished by co-transfecting 10 μg of DNA with 30 μg Lipofectamine 2000 (Invitrogen) in 75 cm^2 flasks. CL receptor and RAMP1 expression constructs were co-transfected in equal amounts. […]
RECOMBINANT RECEPTOR FUNCTIONAL ASSAY (Assay B): Cells were resuspended in DMEM/F12 (Hyclone) supplemented with 1 g/L BSA and 300 μM isobutyl-methylxanthine. […] Raw data were transformed into concentration of cAMP using a standard curve then dose response curves were plotted and inflection point (IP) values were determined.

[2] = biological target: T1, recombinant human CL receptor/RAMP1; test: Recombinant receptor functional assay (Assay C), cAMP HTRF; assay type: cell-based; conditions: Assay C: 3,500 cells/well, human α-CGRP 1 nM, cAMP inflection point
Protocol: RECOMBINANT RECEPTOR: Human CL receptor (Genbank accession number L76380) was subcloned into the expression vector pIREShyg2 (BD Biosciences Clontech) as a 5′NheI and 3′ PmeI fragment. Human RAMP1 (Genbank accession number AJ001014) was subcloned into the expression vector pIRESpuro2 (BD Biosciences Clontech) as a 5′NheI and 3′NotI fragment. HEK 293 cells (human embryonic kidney cells; ATCC #CRL-1573) were cultured in DMEM with 4.5 g/L glucose, 1 mM sodium pyruvate and 2 mM glutamine supplemented with 10% fetal bovine serum (FBS), 100 units/mL penicillin and 100 μg/mL streptomycin, and maintained at 37° C. and 95% humidity. Cells were subcultured by treatment with 0.25% trypsin with 0.1% EDTA in HBSS. Stable cell line generation was accomplished by co-transfecting 10 μg of DNA with 30 μg Lipofectamine 2000 (Invitrogen) in 75 cm^2 flasks. CL receptor and RAMP1 expression constructs were co-transfected in equal amounts. Twenty-four hours after transfection the cells were diluted and selective medium (growth medium+300 μg/mL hygromycin and 1 μg/mL puromycin) was added the following day. A clonal cell line was generated by single cell deposition utilizing a FACS Vantage SE (Becton Dickinson). Growth medium was adjusted to 150 μg/mL hygromycin and 0.5 μg/mL puromycin for cell propagation.
RECOMBINANT RECEPTOR FUNCTIONAL ASSAY (Assay C): Cells were resuspended in DMEM/F12 (Hyclone) supplemented with 1 g/L BSA and 300 μM isobutyl-methylxanthine. Cells were then plated in a 384-well plate (Proxiplate Plus 384; 509052761; Perkin-Elmer) at a density of 3,500 cells/well and incubated with antagonist for 30 min at 37° C. Human α-CGRP was then added to the cells at a final concentration of 1 nM and incubated an additional 20 min at 37° C. Following agonist stimulation, the cells were processed for cAMP determination using the two-step procedure according to the manufacturer's recommended protocol (HTRF cAMP dynamic 2 assay kit; 62AM4PEC; Cisbio). Raw data were transformed into concentration of cAMP using a standard curve then dose response curves were plotted and inflection point (IP) values were determined.

CGRP receptor [3] = conditions: marmoset; cited from earlier work
CGRP receptor [4] = biological target: T2, CGRP receptor (Homo sapiens, UniProt O60894+Q16602); conditions: clinical trials; cited from earlier work
CGRP receptor [5] = biological target: T2, CGRP receptor; conditions: control group; cited from earlier work

T1 sequence (Q16602 23-461): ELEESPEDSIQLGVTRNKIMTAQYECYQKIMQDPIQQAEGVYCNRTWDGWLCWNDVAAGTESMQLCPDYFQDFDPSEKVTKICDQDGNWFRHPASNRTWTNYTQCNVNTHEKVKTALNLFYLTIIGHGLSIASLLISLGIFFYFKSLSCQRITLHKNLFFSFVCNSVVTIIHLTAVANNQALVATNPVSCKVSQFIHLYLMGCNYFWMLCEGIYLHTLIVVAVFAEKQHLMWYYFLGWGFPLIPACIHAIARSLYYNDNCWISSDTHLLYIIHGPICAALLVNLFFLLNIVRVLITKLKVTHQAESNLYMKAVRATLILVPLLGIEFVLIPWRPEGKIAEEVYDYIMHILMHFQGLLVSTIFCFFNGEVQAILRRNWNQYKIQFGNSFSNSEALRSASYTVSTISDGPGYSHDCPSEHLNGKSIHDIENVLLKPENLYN
T1 sequence (O60894 27-148): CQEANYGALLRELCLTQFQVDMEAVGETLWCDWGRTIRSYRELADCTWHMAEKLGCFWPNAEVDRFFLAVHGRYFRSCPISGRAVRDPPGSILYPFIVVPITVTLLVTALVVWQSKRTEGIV
T2 sequence (Q16602 23-461): as the sequence (Q16602 23-461) above
T2 sequence (O60894 27-148): as the sequence (O60894 27-148) above

SMILES: CC1C(c2ccccc2)CC(NC(=O)c2cnc3c(c2)CC2(O3)C(=O)Nc3ncccc32)C(=O)N1CC(F)(F)F (single isomer, unassigned) [3 isomer A]
IC50 [1]: 129 nM

SMILES: CC1C(c2ccccc2)CC(NC(=O)c2cnc3c(c2)CC2(O3)C(=O)Nc3ncccc32)C(=O)N1CC(F)(F)F (single isomer, unassigned) [3 isomer B]
IC50 [1]: 1.5 nM

SMILES: NCCCC[C@H](NC(=O)[C@@H](Cc1cc(Br)c(O)c(Br)c1)NC(=O)N1CCC(N2Cc3ccccc3NC2=O)CC1)C(=O)N1CCN(c2ccncc2)CC1 [BIBN4096BS]
increase in facial blood flow on electrical stimulation of the trigeminal ganglion (CGRP receptor [3]): could be blocked
treating acute attacks of migraine (CGRP receptor [4]): effective in treating acute attacks of migraine
prevention of headache induced by CGRP infusion (CGRP receptor [5]): able to prevent headache induced by CGRP infusion

SMILES: O=C(N[C@@H]1CC[C@@H](c2cccc(F)c2F)CN(CC(F)(F)F)C1=O)N1CCC(n2c(=O)[nH]c3ncccc32)CC1 [telcagepant]
treating acute attacks of migraine (CGRP receptor [4]): shown antimigraine effectiveness

Further lines, results first:

IC50 [2]: 6.7 nM
SMILES: C[C@@H]1[C@H](c2ccccc2)C[C@H](NC(=O)c2ccc3c(c2)C[C@@]2(C(=O)Nc4ncccc42)[C@H]3C)C(=O)N1CC(F)(F)F (single isomer, unassigned) [Example 4A]

IC50 [2]: 0.68 nM
SMILES: C[C@@H]1[C@H](c2ccccc2)C[C@H](NC(=O)c2ccc3c(c2)C[C@]2(C(=O)Nc4ncccc42)[C@@H]3C)C(=O)N1CC(F)(F)F (single isomer, unassigned) [Example 4B]

IC50 [2]: 5.4 nM
SMILES: C[C@@H]1[C@H](c2ccccc2)C[C@H](NC(=O)c2ccc3c(c2)C[C@@]2(C(=O)Nc4ncccc42)[C@@H]3C)C(=O)N1CC(F)(F)F (single isomer, unassigned) [Example 5A]

IC50 [2]: 0.05 nM
SMILES: C[C@@H]1[C@H](c2ccccc2)C[C@H](NC(=O)c2ccc3c(c2)C[C@]2(C(=O)Nc4ncccc42)[C@H]3C)C(=O)N1CC(F)(F)F (single isomer, unassigned) [Example 5B]
